These results are taken from PMC6658782, “The Novel Arylamidine T-2307 Selectively Disrupts Yeast Mitochondrial Function by Inhibiting Respiratory Chain Complexes” (Antimicrobial Agents and Chemotherapy, 2019).

In assay [1] the target is respiratory chain complex II + III (Bos taurus, UniProt P00125+P00157+P13272). Put plainly: MitoCheck complex II/III activity assay, bovine heart mitochondria. It is filed as biochemical. To be noted: bovine heart; 1 mM TTFA, 5 μg/ml antimycin A; read-out: Inhibition (%) of positive control, Complex II+III.
Another assay relates to complex III. The conditions noted are these: cited from earlier work.
Assay [2] concerns isolated yeast mitochondria. Nature of the assay: Mitochondrial oxygen consumption (MitoXpress probe). In kind it is biochemical, Saccharomyces cerevisiae. How it is done: S. cerevisiae from frozen stock (−80°C) was inoculated into yeast extract-peptone-glucose (YPD) medium (1% yeast extract, 2% peptone, and 2% glucose) and grown for 24 h at 30°C. The cultured cells were subcultured into yeast extract-peptone-galactose (YPGal) medium (1% yeast extract, 2% peptone, 2% galactose, and 0.1% glucose) and incubated overnight with continuous shaking at 30°C. When the optical density at 600 nm reached approximately 1.0, the cells were collected by centrifugation (3,000 × g at room temperature for 5 min). Intact mitochondria were isolated as per a previously described protocol ([35]) with minor modifications as follows. Yeast cells were converted to spheroplasts by incubation with Zymolyase-20T (Nacalai Tesque, Inc., Kyoto, Japan) (4 mg of Zymolyase-20T/g [wet weight] of cells) and disrupted using a Dounce homogenizer. The crude mitochondrial fraction was isolated by differential centrifugation ([35]). […]. The mitochondrial protein concentration was determined using the DC protein assay (Bio-Rad Laboratories, Inc., Hercules, CA, USA) following the manufacturer’s instructions. The mitochondrial stock solution was maintained on ice during the oxygen consumption experiment.
The mitochondrial oxygen consumption was measured using a phosphorescent oxygen-sensitive probe, MitoXpress-Xtra (Agilent Technologies, Santa Clara, CA, USA), as described previously ([16], [36]). Succinate was used as a respiratory substrate in this assay. […] A microplate reader, PHERAstar Plus (BMG Labtech GmbH, Ortenberg, Germany), was used to read. The time-resolved fluorescence protocol was set to read the plate at 1.5-min intervals for 60 min at an excitation wavelength of 337 nm, an emission wavelength of 665 nm, a delay time of 40 μs, and a gate time of 100 μs at 30°C.
[…]. […] For quantitative assessment, OCR was determined from the slope of the initial 7.5 min. OCR is expressed as micromolar of O2 per minute per milligram of protein.
The drug concentration was expressed as micromoles per milligram of protein. […]

For assay [3], the target named is respiratory chain complex I (Bos taurus, UniProt P03887+P17694+P42026). Put plainly: MitoCheck complex I activity assay, bovine heart mitochondria. To be noted: bovine heart; 2 μM rotenone; read-out: Inhibition (%) of positive control, complex I. In kind it is biochemical. How it is done: The enzymatic activities of bovine heart mitochondrial respiratory chain complexes were determined using MitoCheck complex I, complex II/III, and complex IV activity assay kits (Cayman Chemical, Ann Arbor, MI, USA). Bovine heart mitochondria from these kits were used for experiments. The experiments were performed following the manufacturer’s instructions. In the experiments, 2 μM rotenone, 1 mM KCN, and both 1 mM TTFA and 5 μg/ml antimycin A served as positive controls for the inhibition of complex I, complex IV, and complexes II plus III, respectively.
In all experiments, the reaction rate of each enzyme was determined by calculating the slope of the linear portion of the curve. Complex I activity in C. albicans was calculated by subtracting the rotenone-insensitive enzymatic activity (with 10 μM rotenone) from the NADH dehydrogenase activity (without rotenone).
OCRs in isolated mitochondria and intracellular ATP levels were compared between the control and treatment groups using the parametric Dunnett’s multiple-comparison test. P values of <0.05 (comparison of multiple groups) were considered statistically significant. IC50 values were determined from dose-response curves compared with untreated control samples using a four-parameter logistic curve-fitting analysis. Data were analyzed using JMP 13.0 (SAS Institute Japan Ltd., Tokyo, Japan).

In a further assay the test system is NADH dehydrogenase. Put plainly: NADH dehydrogenase activity, C. albicans. It is filed as biochemical, Candida albicans. The conditions noted are these: C. albicans; 10 μM rotenone.
The subject of the next assay is Saccharomyces cerevisiae. Put plainly: Intracellular ATP levels in yeast (luminescence assay). It is filed as cell-based. The conditions noted are these: 8 h exposure at 30°C, semisynthetic medium; antimycin A 0.5 μg/ml. As for the experimental part:
Intracellular ATP levels were measured using a previously described method with the following modifications ([25]). S. cerevisiae was grown overnight in a semisynthetic medium (per liter: 20 g of lactate, 0.5 g of glucose, 3 g of yeast extract, 1 g of KH2PO4, 1 g of NH4Cl, 0.5 g of CaCl2·2H2O, 0.5 g of NaCl, and 0.6 g of MgCl2·6H2O; adjusted to pH 5.5 with NaOH). The cells were harvested during the logarithmic-growth phase by centrifugation (3,000 × g at room temperature for 5 min). They were then washed and resuspended in distilled water. The suspension was diluted in a semisynthetic medium to yield 1 × 10^6 cells/ml. After 5 min of incubation at 30°C, T-2307 and antimycin A were added to the suspension. Further, the cells were incubated for 8 h at 30°C. Subsequently, the cells were collected by centrifugation (4,200 × g at 4°C for 5 min). After washes performed with phosphate-buffered saline (PBS; pH 7.2), the cells were resuspended in PBS and diluted to yield 1 × 10^6 cells/ml. ATP levels were measured using the BacTiter-Glo microbial cell viability assay (Promega, Madison, WI, USA), following the manufacturer’s instructions. Luminescence was measured using a microplate reader POLARstar Optima (BMG Labtech GmbH). To determine the viable cell counts, the cell suspension was diluted with PBS and spread on YPD agar. After a 2-day incubation at 30°C, colonies were counted. The intracellular ATP level is expressed as relative light units (RLU)/CFU.

Another assay has as its system whole yeast cells. Put plainly: Oxygen consumption of whole yeast cells (oxygen electrode). The conditions noted are these: T-2307 30, 100, 300, 1,000 μM; antimycin A 10 μg/ml; CCCP 4 μM; 23°C; 3 × 10^7 cells/ml. It is filed as cell-based, Saccharomyces cerevisiae.
For assay [4], the target named is respiratory chain complex II + III (Saccharomyces cerevisiae, UniProt P00163+P07143+P08067). Nature of the assay: Respiratory chain enzymatic activity, complexes II plus III, S. cerevisiae. It is filed as biochemical. To be noted: S. cerevisiae; 10 mM malonic acid, 10 μg/ml antimycin A; read-out: Inhibition (%) of positive control, Complex II+III.
Assay [5] addresses T1, respiratory chain complex II + III (Candida albicans, UniProt A0A1D8PHA3+A0A1D8PJX3+P0C8L0).
T1 sequence (P0C8L0 1-387): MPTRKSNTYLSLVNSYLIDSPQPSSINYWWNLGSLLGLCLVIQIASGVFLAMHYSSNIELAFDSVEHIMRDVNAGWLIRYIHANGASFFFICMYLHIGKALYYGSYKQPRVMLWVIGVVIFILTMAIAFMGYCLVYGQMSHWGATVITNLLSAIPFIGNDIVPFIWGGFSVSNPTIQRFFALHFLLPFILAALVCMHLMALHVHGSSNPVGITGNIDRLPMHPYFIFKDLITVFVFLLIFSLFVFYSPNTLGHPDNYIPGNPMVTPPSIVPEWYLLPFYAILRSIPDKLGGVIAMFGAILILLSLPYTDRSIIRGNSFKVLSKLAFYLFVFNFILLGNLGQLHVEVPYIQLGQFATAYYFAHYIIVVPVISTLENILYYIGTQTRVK
T1 sequence (A0A1D8PHA3 43-288): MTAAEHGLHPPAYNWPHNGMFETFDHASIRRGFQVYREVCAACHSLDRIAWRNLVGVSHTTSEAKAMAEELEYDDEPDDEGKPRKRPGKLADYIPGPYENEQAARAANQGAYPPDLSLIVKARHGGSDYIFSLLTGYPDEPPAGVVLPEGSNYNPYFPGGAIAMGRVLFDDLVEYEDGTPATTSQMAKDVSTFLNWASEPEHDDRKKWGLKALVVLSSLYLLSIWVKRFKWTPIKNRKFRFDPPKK
T1 sequence (A0A1D8PJX3 30-213): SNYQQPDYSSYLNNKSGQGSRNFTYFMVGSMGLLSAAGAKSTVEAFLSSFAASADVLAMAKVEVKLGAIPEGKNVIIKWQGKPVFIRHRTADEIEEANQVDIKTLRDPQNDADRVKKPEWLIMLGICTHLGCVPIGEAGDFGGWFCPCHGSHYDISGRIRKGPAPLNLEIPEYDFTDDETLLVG
Put plainly: Respiratory chain enzymatic activity, complexes II plus III, C. albicans. It is filed as biochemical. To be noted: C. albicans; 10 mM malonic acid, 10 μg/ml antimycin A; read-out: Inhibition (%) of positive control, Complex II+III.

The target of assay [6] is respiratory chain complex II (Saccharomyces cerevisiae, UniProt P21801+P33421+P37298+Q00711). Put plainly: Respiratory chain enzymatic activity, complex II, S. cerevisiae. In kind it is biochemical. The conditions noted are these: S. cerevisiae; 10 mM malonic acid; read-out: Inhibition (%) of positive control, Complex II.
Assay [7] concerns the target respiratory chain complex II (Candida albicans, UniProt Q59QN7+Q5A1E8+Q5AJZ8+Q5ALU6). Nature of the assay: Respiratory chain enzymatic activity, complex II, C. albicans. In kind it is biochemical. The conditions noted are these: 10 mM malonic acid, read-out: Inhibition (%) of positive control, Complex II.

Sequence of respiratory chain complex II (Candida albicans, UniProt Q59QN7+Q5A1E8+Q5AJZ8+Q5ALU6) (Q5A1E8 26-641): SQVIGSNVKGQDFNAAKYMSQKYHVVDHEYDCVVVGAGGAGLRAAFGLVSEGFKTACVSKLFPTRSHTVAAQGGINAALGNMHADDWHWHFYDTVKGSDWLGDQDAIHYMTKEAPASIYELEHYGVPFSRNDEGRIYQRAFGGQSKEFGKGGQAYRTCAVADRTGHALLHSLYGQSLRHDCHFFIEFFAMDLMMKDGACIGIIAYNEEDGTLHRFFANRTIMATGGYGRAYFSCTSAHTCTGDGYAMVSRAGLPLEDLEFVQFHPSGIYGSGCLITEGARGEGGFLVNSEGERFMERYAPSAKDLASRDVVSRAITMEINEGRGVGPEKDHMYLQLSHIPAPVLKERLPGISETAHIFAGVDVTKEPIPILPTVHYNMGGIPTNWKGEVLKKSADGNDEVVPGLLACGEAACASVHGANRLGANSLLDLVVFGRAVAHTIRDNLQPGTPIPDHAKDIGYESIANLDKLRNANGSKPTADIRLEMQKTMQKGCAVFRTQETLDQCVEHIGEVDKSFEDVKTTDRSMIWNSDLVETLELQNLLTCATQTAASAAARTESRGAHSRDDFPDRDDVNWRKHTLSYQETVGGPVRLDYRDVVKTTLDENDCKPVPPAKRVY
Sequence of respiratory chain complex II (Candida albicans, UniProt Q59QN7+Q5A1E8+Q5AJZ8+Q5ALU6) (Q59QN7 20-263): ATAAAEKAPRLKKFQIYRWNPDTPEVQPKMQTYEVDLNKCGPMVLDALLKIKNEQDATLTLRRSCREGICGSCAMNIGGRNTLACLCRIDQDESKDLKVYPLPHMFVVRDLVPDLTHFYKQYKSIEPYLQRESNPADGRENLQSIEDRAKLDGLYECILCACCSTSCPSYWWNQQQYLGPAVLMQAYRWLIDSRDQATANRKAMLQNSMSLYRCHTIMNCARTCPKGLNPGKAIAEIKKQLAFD
Sequence of respiratory chain complex II (Candida albicans, UniProt Q59QN7+Q5A1E8+Q5AJZ8+Q5ALU6) (Q5ALU6 32-176): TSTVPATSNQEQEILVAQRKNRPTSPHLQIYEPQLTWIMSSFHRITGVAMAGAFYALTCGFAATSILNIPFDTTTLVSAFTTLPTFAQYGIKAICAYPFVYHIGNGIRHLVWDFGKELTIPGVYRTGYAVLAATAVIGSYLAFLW
Sequence of respiratory chain complex II (Candida albicans, UniProt Q59QN7+Q5A1E8+Q5AJZ8+Q5ALU6) (Q5AJZ8 28-164): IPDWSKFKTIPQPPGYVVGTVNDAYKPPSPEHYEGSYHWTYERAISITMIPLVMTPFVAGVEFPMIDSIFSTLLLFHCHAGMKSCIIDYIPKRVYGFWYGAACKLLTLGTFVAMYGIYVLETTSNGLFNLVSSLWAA
Sequence of respiratory chain complex II (Saccharomyces cerevisiae, UniProt P21801+P33421+P37298+Q00711) (P21801 21-266): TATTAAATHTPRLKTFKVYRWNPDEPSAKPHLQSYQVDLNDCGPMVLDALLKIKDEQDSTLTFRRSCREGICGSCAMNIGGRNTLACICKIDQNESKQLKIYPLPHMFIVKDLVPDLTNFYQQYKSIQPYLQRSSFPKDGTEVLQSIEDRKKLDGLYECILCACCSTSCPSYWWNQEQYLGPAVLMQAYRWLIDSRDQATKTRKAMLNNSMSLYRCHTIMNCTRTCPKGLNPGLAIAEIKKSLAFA
Sequence of respiratory chain complex II (Saccharomyces cerevisiae, UniProt P21801+P33421+P37298+Q00711) (P33421 51-198): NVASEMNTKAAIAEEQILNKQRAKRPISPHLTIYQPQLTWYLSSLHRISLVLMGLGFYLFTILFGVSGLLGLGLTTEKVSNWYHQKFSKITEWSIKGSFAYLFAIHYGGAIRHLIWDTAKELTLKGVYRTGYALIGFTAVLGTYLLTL
Sequence of respiratory chain complex II (Saccharomyces cerevisiae, UniProt P21801+P33421+P37298+Q00711) (P37298 32-181): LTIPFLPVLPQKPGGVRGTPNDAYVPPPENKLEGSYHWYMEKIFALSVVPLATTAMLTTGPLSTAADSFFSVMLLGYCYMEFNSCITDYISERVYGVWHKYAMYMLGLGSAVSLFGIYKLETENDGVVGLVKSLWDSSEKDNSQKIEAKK
Sequence of respiratory chain complex II (Saccharomyces cerevisiae, UniProt P21801+P33421+P37298+Q00711) (Q00711 29-640): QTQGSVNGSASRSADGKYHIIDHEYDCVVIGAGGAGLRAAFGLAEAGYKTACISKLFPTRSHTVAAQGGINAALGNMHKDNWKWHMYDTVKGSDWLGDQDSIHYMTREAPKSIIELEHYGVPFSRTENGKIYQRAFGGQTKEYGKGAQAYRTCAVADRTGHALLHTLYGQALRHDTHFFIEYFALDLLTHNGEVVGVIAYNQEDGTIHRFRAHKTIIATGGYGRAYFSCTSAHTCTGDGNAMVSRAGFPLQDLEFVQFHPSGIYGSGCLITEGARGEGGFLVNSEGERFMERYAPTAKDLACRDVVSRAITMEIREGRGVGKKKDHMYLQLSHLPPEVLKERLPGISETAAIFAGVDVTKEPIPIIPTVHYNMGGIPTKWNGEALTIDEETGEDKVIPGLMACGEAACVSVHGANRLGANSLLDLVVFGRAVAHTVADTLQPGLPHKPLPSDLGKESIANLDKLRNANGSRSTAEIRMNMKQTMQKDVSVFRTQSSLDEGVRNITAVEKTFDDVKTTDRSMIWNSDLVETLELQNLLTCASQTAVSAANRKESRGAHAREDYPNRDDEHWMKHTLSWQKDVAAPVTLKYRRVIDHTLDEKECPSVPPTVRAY

`O=C(CC(=O)C(F)(F)F)c1cccs1` [TTFA, 2-thenoyltrifluoroacetone, reference compound]: the inhibition at 1000 µM in assay [1] was found to be 86%.
On to `C/C=C/[C@@H]1[C@H]2C[C@@H](C)CC[C@@H]2C(C)=C[C@H]1C(=O)c1c(O)c(-c2ccc(O)cc2)c[nH]c1=O` [ilicicolin H], for which, in the assay on complex III, the “selectivity between yeast and bovine complex III” value was greater than 70 fold.
In the case of Oligomycin A, the “effect on mitochondrial oxygen consumption rate (OCR)” value in assay [2] (ADP-stimulated condition (succinate + ADP)) is reported as “significantly inhibited”; in assay [2] (basal condition (succinate, absence of ADP)), “did not decrease the OCR”.
In the case of `C=C(C)[C@H]1Cc2c(ccc3c2O[C@@H]2COc4cc(OC)c(OC)cc4[C@@H]2C3=O)O1` [Rotenone, rotenone, reference compound], in assay [3], the inhibition at 2 µM was 68%. Moreover, the “Inhibition (%) of positive control, NADH dehydrogenase (including Complex I)” value with NADH dehydrogenase is recorded as 59%.
`CCCCCC[C@H]1C(=O)O[C@H](C)[C@H](NC(=O)c2cccc(NC=O)c2O)C(=O)O[C@@H](C)[C@@H]1OC(=O)CC(C)C` [Antimycin A]: the inhibition at 5 µg/mL in [1] is 92%. In addition, in the assay on Saccharomyces cerevisiae, the “effect on intracellular ATP level” value was “significantly decreased”. Further, in the assay with whole yeast cells, the “effect on oxygen consumption in whole yeast cells” value is “completely and immediately inhibited respiration”. Moreover, the inhibition at 10 µg/mL in assay [4] is 97%; in assay [5] it was 98%.
Consider `O=C(O)CC(=O)O` [Malonic acid], for which the inhibition at 10000 µM in [6] was 100%; in [4] it was 97%; in [7], 100%; in [5], 98%.
For `N#CC(C#N)=NNc1cccc(Cl)c1` [CCCP, carbonyl cyanide m-chlorophenylhydrazone], in the assay on whole yeast cells, the “effect on oxygen consumption in whole yeast cells” value is “stimulated oxygen consumption”.
